Data on 41 compounds can be found in patent publication US20210130473A1, “TGFßR1 INHIBITOR-ASGR ANTIBODY CONJUGATES AND USES THEREOF” (Silverback Therapeutics, Inc., priority 2019, published 2021).

The target of one test is T1, ALK5 (Homo sapiens, UniProt P36897).
T1 construct: purchased Reaction Biology Corp (Malvern, Pa.)
T1 sequence (P36897 34-503): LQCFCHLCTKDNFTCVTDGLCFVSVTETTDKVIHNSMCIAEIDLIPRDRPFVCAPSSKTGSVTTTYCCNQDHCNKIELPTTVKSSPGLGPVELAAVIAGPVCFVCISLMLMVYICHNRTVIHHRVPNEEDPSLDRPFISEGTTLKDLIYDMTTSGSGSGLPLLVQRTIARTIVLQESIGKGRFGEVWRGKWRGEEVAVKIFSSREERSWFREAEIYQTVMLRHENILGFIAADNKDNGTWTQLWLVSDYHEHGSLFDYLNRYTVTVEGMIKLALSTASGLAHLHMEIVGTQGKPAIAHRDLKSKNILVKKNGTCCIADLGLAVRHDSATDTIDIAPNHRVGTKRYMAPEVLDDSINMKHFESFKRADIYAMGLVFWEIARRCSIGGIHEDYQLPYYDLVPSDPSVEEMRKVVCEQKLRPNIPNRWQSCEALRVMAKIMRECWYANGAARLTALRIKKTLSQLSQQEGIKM
Description: ALK5 enzyme inhibition assay (casein substrate, 10 uM ATP, 33P-ATP, filter-binding; Reaction Biology Corp). The test is classed as biochemical. As for the experimental part: ALK5 enzyme inhibition assays were performed by Reaction Biology Corp (Malvern, Pa.). 1 mg/mL of peptide substrate (casein) and 10 uM ATP were prepared in a mixture of fresh reaction buffer. The kinase was delivered into the substrate solution which was gently mixed. Compounds in 100% DMSO were added to the kinase reaction mixture by Acoustic technology (Echo550; nanoliter range) and the mixture was incubated for 20 min at room temperature. ^33P-ATP (Specific activity 10 uCi/uL) was added into the reaction mixture to initiate the reaction and the reaction mixture was incubated for 2 hours at room temperature. Radioactivity was detected by filter-binding method and kinase activity data were expressed as the percent remaining kinase activity in test samples compared to vehicle (dimethyl sulfoxide) reactions. IC50 values and curve fits were obtained using Prism (GraphPad Software).

Test [1] has as its system TGFβ/SMAD Signaling Pathway SBE reporter cell line. Put plainly: TGFb reporter assay in HEK293 SBE-LUC reporter cells (luciferase). It is filed as cell-based. To be noted: Homo sapiens, key of the table says IC50, read-out: EC50 (the source's name). As for the experimental part:
TGFβ/SMAD Signaling Pathway SBE reporter cell line was obtained from BPS Bioscience. Cells are passed, expanded, and stored in liquid nitrogen as per the supplier's instructions with the exception that growth media is changed to DMEM-C with Geneticin (DMEM supplemented with 10% fetal bovine serum, 1×NEAA, 1 mM Pyruvate, 2 mM glutamine, 50 μg/mL penicillin, 50 U/mL streptomycin and 400 μg/mL of Geneticin). The assay media is MEM supplemented with 0.5% fetal bovine serum, 1×NEAA, 1 mM Pyruvate, 50 μg/mL penicillin and 50 U/mL streptomycin.
Compounds are assayed to measure their activity as ALK5 inhibitors.
The HEK293 SBE-LUC reporter cells from Example 15 were grown in DMEM-C with Geneticin (DMEM supplemented with […], 1×NEAA, 1 mM Pyruvate, 2 mM glutamine, 50 μg/mL penicillin, 50 U/mL streptomycin and 400 ug/mL of Geneticin). The assay media was MEM supplemented with 0.5% fetal bovine serum, 1×NEAA, 1 mM Pyruvate, 50 μg/mL penicillin and 50 U/mL streptomycin.
The HEK293 SBE-LUC reporter cells were harvested from the tissue culture flasks by incubation in small quantity of Versene at room temperature for three to five minutes after the media in the flask is removed and cells rinsed with PBS. Cells were counted and diluted in the assay media at ˜0.8×10^6 cells/mL then 50 uL/well were added to 96-well assay plate. Test samples (at desired concentrations diluted in assay media) were added to assay plate containing the 50 uL/well of cells (or media only), 50 uL per well, and incubated for 5-6 hours at 37° C. in a 5% CO2 humidified incubator. After that time, 15 uL of TGFb diluted to 12.5 ng/mL in the assay media was added to the plate. Controls included TGFb titration (from 25 to 0 ng/mL) without inhibitors, and media only (without cells, inhibitor or TGFb). Plates were incubated at 37° C. in a 5% CO2 humidified incubator for 18h. Luciferase substrate solution was subsequently added at 75 uL per well, incubated in dark with shaking at room temperature for 10 min, and luminescence was measured using a luminometer.
In general terms: In a reporter assay the amount or activity of a reporter protein is the signal.

Regarding `Cc1cccc(-c2nc(CNC3CCCOC3)[nH]c2-c2ccc3ncnn3c2)n1` (stereo not shown) [Compound 1.15], the IC50 on ALK5 (Table 12) was 100 to 1000 nM; in test [1], 10 to 100 nM.
On the same counts, the results for `Cc1cccc(-c2nc(CNC3CCCCC3C)[nH]c2-c2ccc3ncnn3c2)n1` (stereo not shown) [Compound 1.16] are 100 to 1000 nM and 10 to 100 nM.
Turning to `Cc1cccc(-c2nc(CNc3cccc4c3C(N)CC4)[nH]c2-c2ccc3ncnn3c2)n1` (stereo not shown) [Compound 1.20], the IC50 (on ALK5 (Table 12); in test [1]) was 100 to 1000 nM in each case.
In the case of `Cc1cccc(-c2nc(CNc3ccc4c(c3)C(N)CC4)[nH]c2-c2ccc3ncnn3c2)n1` (stereo not shown) [Compound 1.21], the IC50 (at ALK5 (Table 12); in test [1]) was 100 to 1000 nM each time.
For `Cc1cccc(-c2nc(CNc3cccc4c3CC(N)C4)[nH]c2-c2ccc3ncnn3c2)n1` (stereo not shown) [Compound 1.22], the IC50 on ALK5 (Table 12) was in the range of 1000 to 10000 nM; in test [1], 100 to 1000 nM.
Taken in the same sequence, the figures for `CC(=O)NC1Cc2cccc(NCc3nc(-c4cccc(C)n4)c(-c4ccc5ncnn5c4)[nH]3)c2C1` (stereo not shown) [Compound 1.23] were 10 to 100 nM and 100 to 1000 nM.
With `Cc1cccc(-c2nc(CNc3ccc4c(c3)CC(N)C4)[nH]c2-c2ccc3ncnn3c2)n1` (stereo not shown) [Compound 1.24], the IC50 (at ALK5 (Table 12); in test [1]) was 100 to 1000 nM each time.
As to `Cc1cccc(-c2nc(CN[C@@H]3CCc4ccccc43)[nH]c2-c2ccn3ncnc3c2)n1` [Compound 1.30], the IC50 at ALK5 (Table 12) lay within 100 to 1000 nM; in test [1], 10 to 100 nM.
Regarding `Cc1cccc(-c2nc(CNc3cccc4c3CNC4)[nH]c2-c2ccn3ncnc3c2)n1` [Compound 1.31], the IC50 (on ALK5 (Table 12); in test [1]) was 100 to 1000 nM throughout.
On to `Cc1cccc(-c2nc(CN[C@H]3CCCC[C@@H]3F)[nH]c2-c2ccn3ncnc3c2)n1` [Compound 1.32], for which the IC50 on ALK5 (Table 12) fell in the range of 10 to 100 nM; in test [1], 100 to 1000 nM.
Regarding `Cc1cccc(-c2nc(CN[C@H]3CCCC[C@H]3F)[nH]c2-c2ccn3ncnc3c2)n1` [Compound 1.33], the IC50 (at ALK5 (Table 12); in test [1]) was 100 to 1000 nM throughout.
Regarding `Cc1cccc(-c2nc(CN[C@H]3CCc4ccccc43)[nH]c2-c2ccn3ncnc3c2)n1` [Compound 1.34], the IC50 (on ALK5 (Table 12); in test [1]) was 100 to 1000 nM each time.
As to `Cc1cccc(-c2nc(C3CCCNC3)[nH]c2-c2ccc3ncnn3c2)n1` (stereo not shown) [Compound 1.48], the values for the IC50 (at ALK5 (Table 12); in test [1]) were 1000 to 10000 nM and 100 to 1000 nM, respectively.
Take `Cc1cccc(-c2nc(C3CCN(C(=O)OC(C)(C)C)C3)[nH]c2-c2ccc3ncnn3c2)n1` (stereo not shown) [Compound 1.51]: the IC50 is 1000 to 10000 nM on ALK5 (Table 12) and 100 to 1000 nM in test [1].
Consider `Cc1cccc(-c2nc(C3CN(C(=O)OC(C)(C)C)C3)[nH]c2-c2ccc3ncnn3c2)n1` [Compound 1.52], for which the IC50 at ALK5 (Table 12) was 1000 to 10000 nM; in test [1] it was 100 to 1000 nM.
On to `Cc1cccc(-c2nc(C34CCC(N)(CC3)CC4)[nH]c2-c2ccc3ncnn3c2)n1` [Compound 1.55], for which the IC50 (at ALK5 (Table 12); in test [1]) was 1000 to 10000 nM in each case.
On to `Cc1cccc(-c2nc(CNCc3cccc(Cl)c3)[nH]c2-c2ccc3ncnn3c2)n1` [Compound 2], for which the IC50 lay within 100 to 1000 nM at ALK5 (Table 11) and 10 to 100 nM in test [1].
Consider `Cc1cccc(-c2nc(CNCc3ccc(Cl)cc3)[nH]c2-c2ccc3ncnn3c2)n1` [Compound 3], for which the IC50 at ALK5 (Table 11) is 1000 to 10000 nM; in test [1] it was 10 to 100 nM.
`Cc1cccc(-c2nc(CNCc3ccc(Cl)c(Cl)c3)[nH]c2-c2ccc3ncnn3c2)n1` [Compound 4]: the IC50 (at ALK5 (Table 11); in test [1]) was 100 to 1000 nM throughout.
Regarding `Cc1cccc(-c2nc(CNCc3cc(Cl)ccc3Cl)[nH]c2-c2ccc3ncnn3c2)n1` [Compound 5], the values for the IC50 (on ALK5 (Table 11); in test [1]) were 50 to 100 nM and 10 to 100 nM, respectively.
On to `Cc1cccc(-c2nc(CNCc3c(Cl)cccc3Cl)[nH]c2-c2ccc3ncnn3c2)n1` [Compound 6], for which the figures for the IC50 (on ALK5 (Table 11); in test [1]) were 0.1 to 50 nM and 0.1 to 10 nM, respectively.
For the compound `COc1cccc(CNCc2nc(-c3cccc(C)n3)c(-c3ccc4ncnn4c3)[nH]2)c1` [Compound 7], the IC50 was in the range of 100 to 1000 nM at ALK5 (Table 11) and 0.1 to 10 nM in test [1].
For the compound `COc1ccc(CNCc2nc(-c3cccc(C)n3)c(-c3ccc4ncnn4c3)[nH]2)cc1` [Compound 8], the IC50 on ALK5 (Table 11) is 1000 to 10000 nM; in test [1] it was 100 to 1000 nM.
Turning to `COc1ccc(OC)c(CNCc2nc(-c3cccc(C)n3)c(-c3ccc4ncnn4c3)[nH]2)c1` [Compound 9], the IC50 was 100 to 1000 nM on ALK5 (Table 11) and 10 to 100 nM in test [1].
On the same counts, the results for `Cc1cccc(-c2nc(CNCc3ccccc3Cl)[nH]c2-c2ccn3ncnc3c2)n1` [Compound 10] are 0.1 to 50 nM and 0.1 to 10 nM.
On to `Cc1cccc(-c2nc(CN[C@H](C)c3ccccc3)[nH]c2-c2ccc3ncnn3c2)n1` [Compound 11], for which the values for the IC50 (at ALK5 (Table 11); in test [1]) were 100 to 1000 nM and 10 to 100 nM, respectively.
Regarding `Cc1cccc(-c2nc(CN[C@@H](C)c3ccccc3)[nH]c2-c2ccc3ncnn3c2)n1` [Compound 12], the IC50 was 1000 to 10000 nM at ALK5 (Table 11) and 100 to 1000 nM in test [1].
On the same counts, the results for `Cc1cccc(-c2nc(CNC(c3ccccc3)c3ccccc3)[nH]c2-c2ccc3ncnn3c2)n1` [Compound 13] are 50 to 100 nM and 0.1 to 10 nM.
Regarding `Cc1cccc(-c2nc(CN[C@@H](CO)c3ccccc3)[nH]c2-c2ccc3ncnn3c2)n1` [Compound 14], the IC50 at ALK5 (Table 11) fell in the range of 50 to 100 nM; in test [1], 10 to 100 nM.
On to `COC(=O)[C@H](NCc1nc(-c2cccc(C)n2)c(-c2ccc3ncnn3c2)[nH]1)c1ccccc1` [Compound 15], for which the IC50 lay in the range of 50 to 100 nM on ALK5 (Table 11) and 100 to 1000 nM in test [1].
Taken in the same sequence, the figures for `COC(=O)[C@@H](NCc1nc(-c2cccc(C)n2)c(-c2ccc3ncnn3c2)[nH]1)c1ccccc1` [Compound 16] were 0.1 to 50 nM and 100 to 1000 nM.
On to `COc1ccccc1CNCc1nc(-c2cccc(C)n2)c(-c2ccc3ncnn3c2)[nH]1` [Compound 17], for which the IC50 on ALK5 (Table 11) lay in the range of 50 to 100 nM; in test [1] it was 10 to 100 nM.
Turning to `Cc1cccc(-c2nc(CNCc3ccccc3F)[nH]c2-c2ccc3ncnn3c2)n1` [Compound 18], the values for the IC50 (at ALK5 (Table 11); in test [1]) were 0.1 to 50 nM and 0.1 to 10 nM, respectively.
On the same counts, the results for `Cc1cccc(-c2nc(CNCc3ccccc3C#N)[nH]c2-c2ccc3ncnn3c2)n1` [Compound 20] are 1000 to 10000 nM and 100 to 1000 nM.
As to `Cc1cccc(-c2nc(CNCc3ccccc3C)[nH]c2-c2ccc3ncnn3c2)n1` [Compound 21], the IC50 lay in the range of 0.1 to 50 nM on ALK5 (Table 11) and 0.1 to 10 nM in test [1].
In the case of `CCc1ccccc1CNCc1nc(-c2cccc(C)n2)c(-c2ccc3ncnn3c2)[nH]1` [Compound 22], the results for the IC50 (at ALK5 (Table 11); in test [1]) were 0.1 to 50 nM and 0.1 to 10 nM, respectively.
Regarding `Cc1cccc(-c2nc(CNCc3ccccc3C(C)C)[nH]c2-c2ccc3ncnn3c2)n1` [Compound 23], the IC50 on ALK5 (Table 11) lay within 50 to 100 nM; in test [1] it was 0.1 to 10 nM.
Regarding `Cc1cccc(-c2nc(CNCc3ccccc3-c3ccccc3)[nH]c2-c2ccc3ncnn3c2)n1` [Compound 24], the IC50 lay within 0.1 to 50 nM at ALK5 (Table 11) and 0.1 to 10 nM in test [1].
As to `Cc1cccc(-c2nc(CNCc3ccccc3N(C)C)[nH]c2-c2ccc3ncnn3c2)n1` [Compound 25], the IC50 at ALK5 (Table 11) lay within 100 to 1000 nM; in test [1] it was 0.1 to 10 nM.
In the case of `Cc1cccc(-c2nc(CNCc3ccccc3OC(F)(F)F)[nH]c2-c2ccc3ncnn3c2)n1` [Compound 26], the IC50 fell in the range of 0.1 to 50 nM at ALK5 (Table 11) and 0.1 to 10 nM in test [1].
Consider `Cc1cccc(-c2nc(CNCc3ccccc3CC(F)(F)F)[nH]c2-c2ccc3ncnn3c2)n1` [Compound 27], for which the IC50 at ALK5 (Table 11) is 50 to 100 nM; in test [1], 0.1 to 10 nM.
